From patent US20030211475A1, “Methods for identifying pathway-specific reporters and target genes, and uses thereof” (Rosetta Inpharmatics, Inc., priority 1999, published 2003)

System: ergosterol pathway
Assay: DNA microarray transcript profiling of clotrimazole-treated yeast

In the case of `Clc1ccccc1C(c1ccccc1)(c1ccccc1)n1ccnc1` [Clotrimazole, clotrimazole], the “YPL272C expression in response to drug treatment (titration plot, FIG. 13)” value (clotrimazole titration) is reported as “induced to a high level” and the “number of genes upregulated by treatment” value (wild-type strain R174, YPD, 30° C., 12 hours, 0.03, 0.1, 1.0, and 3.0 ug/ml) is reported as roughly 500.
